According to patent publication US20040209914A1, “Aromatic sulfone hydroxamic acids and their use as protease inhibitors” (priority 2000, published 2004):

Key:
Experiment in all cases: biochemical
Recombinant human MMP-1 = target: T1, Recombinant human MMP-1 (Homo sapiens, UniProt P03956); conditions: fluorogenic MCA-peptide substrate, pH 7.5, room temperature
T1 construct: made in house; host or cells: transfected HT-1080 cells
T1 sequence (P03956 100-469): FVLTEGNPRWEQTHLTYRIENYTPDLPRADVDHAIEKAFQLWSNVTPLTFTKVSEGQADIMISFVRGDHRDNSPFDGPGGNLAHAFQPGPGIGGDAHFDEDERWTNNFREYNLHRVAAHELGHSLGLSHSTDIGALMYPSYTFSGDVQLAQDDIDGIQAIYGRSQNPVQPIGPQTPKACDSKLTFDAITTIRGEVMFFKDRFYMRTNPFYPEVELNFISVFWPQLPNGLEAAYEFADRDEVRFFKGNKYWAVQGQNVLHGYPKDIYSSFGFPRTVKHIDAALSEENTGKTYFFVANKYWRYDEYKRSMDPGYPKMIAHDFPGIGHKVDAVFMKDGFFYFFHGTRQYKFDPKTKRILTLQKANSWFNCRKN
Experimental: (§1) Recombinant human MMP-1, MMP-2, MMP-9, MMP-13, and were used in this assay. These enzymes were prepared in the Assignee's es following usual laboratory procedures. Specifics for preparing and e enzymes can be found in the scientific literature describing these See, e.g., Enzyme Nomenclature (Academic Press, San Diego, Calif., d the citations therein).
The MMP-1 was obtained from MMP-1 expressing transfected HT-1080 cells provided by Dr. Harold Welgus of Washington University in St. Louis, Mo. The MMP-1 was activated using 4-aminophenylmercuric acetate (APMA), and then purified over a hydroxamic acid column.
(§2) The enzyme substrate was a methoxycoumarin-containing polypeptide having the following sequence:
(§3) MCA-ProLeuGlyLeuDpaAlaArgNH2
(§4) Here, “MCA” is methoxycoumarin and “Dpa” is 3-(2,4-dinitrophenyl)-L-2,3-diaminopropionyl alanine.
(§5) These solutions were then compared to a control (which contained equal amount of DMSO/buffer solution, but no hydroxamate compound) using Microfluor™ White Plates (Dynatech, Chantilly, Va.). Specifically, The MMPs were activated with APMA or trypsin. […] The control likewise was incubated at room temperature in separate plates with the MMP and 4 uM of the MMP substrate. […] Inhibition was measured as a reduction in fluorescent intensity as a function of inhibitor concentration using a Perkin Elmer (Norwalk, Conn.) L550 plate reader. The IC50's were then calculated from these measurements.

Recombinant human MMP-2 = target: T2, Recombinant human MMP-2 (Homo sapiens, UniProt P08253); conditions: fluorogenic MCA-peptide substrate, pH 7.5, room temperature; read-out: MMP-2 IC50
T2 construct: made in house
T2 sequence (P08253 110-660): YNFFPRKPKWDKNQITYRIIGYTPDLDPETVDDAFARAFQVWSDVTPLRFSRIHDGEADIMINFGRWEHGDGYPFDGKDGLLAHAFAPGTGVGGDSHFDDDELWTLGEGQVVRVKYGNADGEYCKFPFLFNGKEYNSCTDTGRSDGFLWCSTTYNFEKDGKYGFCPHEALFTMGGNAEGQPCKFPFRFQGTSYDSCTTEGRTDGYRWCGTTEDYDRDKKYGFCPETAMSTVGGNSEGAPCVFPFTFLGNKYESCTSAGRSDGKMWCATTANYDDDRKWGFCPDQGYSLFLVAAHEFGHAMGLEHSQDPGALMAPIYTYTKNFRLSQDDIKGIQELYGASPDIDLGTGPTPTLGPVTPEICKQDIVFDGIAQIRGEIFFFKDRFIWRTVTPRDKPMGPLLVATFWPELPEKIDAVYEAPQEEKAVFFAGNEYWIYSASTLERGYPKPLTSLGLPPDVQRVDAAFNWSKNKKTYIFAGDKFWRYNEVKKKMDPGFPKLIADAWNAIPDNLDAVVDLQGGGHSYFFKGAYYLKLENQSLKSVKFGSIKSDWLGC
Experimental: as §1
The MMP-2 was obtained from MMP-2 expressing transfected cells provided by Dr. Gregory Goldberg of Washington University.
as §2, §3, §4, §5

Recombinant human MMP-13 = target: T3, Recombinant human MMP-13 (Homo sapiens, UniProt P45452); conditions: fluorogenic MCA-peptide substrate, pH 7.5, room temperature; read-out: MMP-13 IC50
T3 construct: made in house; host or cells: baculovirus / insect cells
Experimental: as §1
The expressed proenzyme was first purified over a heparin agarose column, and then over a chelating zinc chloride column. The proenzyme was then activated by APMA for use in the assay.
as §2, §3, §4, §5

Row | Structure (SMILES) | IC50 (Recombinant human MMP-1) | IC50 (Recombinant human MMP-2) | IC50 (Recombinant human MMP-13)
1 | CCN1CCC(C(=O)NO)(S(=O)(=O)c2ccc(N3CCC(C(=O)c4ccc(N(C)C)cc4)CC3)cc2)CC1 [Example 168] | > 10000 nM | 2180 nM | 2.1 nM
2 | CCCc1ccc(C(=O)C2CCN(c3ccc(S(=O)(=O)C4(C(=O)NO)CCN(CC)CC4)cc3)CC2)cc1 [Example 170] | > 10000 nM | 134 nM | 1.3 nM
3 | C#CCN1CCC(C(=O)NO)(S(=O)(=O)c2ccc(N3CCC(C(=O)c4ccc(N(C)CC)cc4)CC3)cc2)CC1 [Example 174] | > 10000 nM | 1070 nM | 1.1 nM
4 | C#CCN1CCC(C(=O)NO)(S(=O)(=O)c2ccc(N3CCC(C(=O)c4ccc5ccccc5c4)CC3)cc2)CC1 [Example 175] | > 10000 nM | 137 nM | 0.7 nM
5 | C=CCN1CCC(C(=O)NO)(S(=O)(=O)c2ccc(N3CCC(C(=O)c4ccc(Cl)cc4)CC3)cc2)CC1 [Example 180] | > 10000 nM | 52.7 nM | 0.3 nM
6 | C=CCN1CCC(C(=O)NO)(S(=O)(=O)c2ccc(N3CCC(C(=O)c4ccc(N(C)CC)cc4)CC3)cc2)CC1 [Example 181] | > 10000 nM | 936 nM | 2.3 nM
7 | C=CCN1CCC(C(=O)NO)(S(=O)(=O)c2ccc(N3CCC(C(=O)c4ccc(OC)cc4)CC3)cc2)CC1 [Example 182] | > 10000 nM | 115 nM | 1.1 nM
8 | O=C(NO)C1(S(=O)(=O)c2ccc(N3CCC(Sc4nc5ccccc5s4)CC3)cc2)CCN(C2CC2)CC1 [Example 185] | > 10000 nM | 87.4 nM | 5.1 nM
9 | COCCN1CCC(C(=O)NO)(S(=O)(=O)c2ccc(N3CCC(C(=O)c4cccc(Cl)c4)CC3)cc2)CC1 [Example 186] | > 10000 nM | 94.4 nM | 3.5 nM
10 | O=C(c1ccc2ccccc2c1)C1CCN(c2ccc(S(=O)(=O)C3(C(=O)NO)CCN(CC4CC4)CC3)cc2)CC1 [Example 187] | > 10000 nM | 242 nM | 2.7 nM
11 | COc1ccc(C(=O)C2CCN(c3ccc(S(=O)(=O)C4(C(=O)NO)CCN(CC5CC5)CC4)cc3)CC2)cc1 [Example 188] | > 10000 nM | 250 nM | 2 nM
12 | CC(C)Cc1ccc(C(=O)C2CCN(c3ccc(S(=O)(=O)C4(C(=O)NO)CCN(C5CC5)CC4)cc3)CC2)cc1 [Example 189] | > 10000 nM | 258 nM | < 0.1 nM
13 | O=C(c1ccc(Br)cc1)C1CCN(c2ccc(S(=O)(=O)C3(C(=O)NO)CCN(C4CC4)CC3)cc2)CC1 [Example 190] | > 10000 nM | 23.1 nM | 0.2 nM
14 | COCCN1CCC(C(=O)NO)(S(=O)(=O)c2ccc(N3CCC(C(=O)c4ccc(OC(C)C)c(C)c4)CC3)cc2)CC1 [Example 191] | > 10000 nM | 2290 nM | 3 nM
15 | CCN1CCC(C(=O)NO)(S(=O)(=O)c2ccc(N3CCC(C(=O)c4ccc(OC)cc4)CC3)cc2)CC1 [Example 194] | > 10000 nM | 1230 nM | 9.1 nM
16 | CCN1CCC(C(=O)NO)(S(=O)(=O)c2ccc(N3CCC(C(=O)c4ccc(CC5CCC5)cc4)CC3)cc2)CC1 [Example 195] | > 10000 nM | 463 nM | 0.3 nM
17 | O=C(c1ccc(CC2CCC2)cc1)C1CCN(c2ccc(S(=O)(=O)C3(C(=O)NO)CCN(C4CC4)CC3)cc2)CC1 [Example 196] | > 10000 nM | 750 nM | 1 nM
18 | O=C(c1ccc(CC2CCCC2)cc1)C1CCN(c2ccc(S(=O)(=O)C3(C(=O)NO)CCN(C4CC4)CC3)cc2)CC1 [Example 197] | > 10000 nM | 1720 nM | 1.4 nM

Row | Structure (SMILES) | IC50 (Recombinant human MMP-1) | IC50 (Recombinant human MMP-2) | IC50 (Recombinant human MMP-13)
19 | O=C(c1ccc(CCC2CCCC2)cc1)C1CCN(c2ccc(S(=O)(=O)C3(C(=O)NO)CCN(C4CC4)CC3)cc2)CC1 [Example 199] | > 10000 nM | 3390 nM | 11.7 nM
20 | CCC(C)Cc1ccc(C(=O)C2CCN(c3ccc(S(=O)(=O)C4(C(=O)NO)CCN(C5CC5)CC4)cc3)CC2)cc1 (stereo not drawn) [Example 200] | > 10000 nM | 1400 nM | 0.5 nM
21 | COCCN1CCC(C(=O)NO)(S(=O)(=O)c2ccc(N3CCC(C(=O)c4ccc(CC5CCC5)cc4)CC3)cc2)CC1 [Example 201] | > 10000 nM | 6320 nM | 0.2 nM
22 | COCCN1CCC(C(=O)NO)(S(=O)(=O)c2ccc(N3CCC(C(=O)c4ccc(CC5CCCC5)cc4)CC3)cc2)CC1 [Example 202] | > 10000 nM | 1020 nM | 0.4 nM
23 | COCCN1CCC(C(=O)NO)(S(=O)(=O)c2ccc(N3CCC(C(=O)c4ccc(CC5CCCCC5)cc4)CC3)cc2)CC1 [Example 203] | 2370 nM | 816 nM | 0.6 nM
24 | COCCN1CCC(C(=O)NO)(S(=O)(=O)c2ccc(N3CCC(C(=O)c4ccc(CCC5CCCC5)cc4)CC3)cc2)CC1 [Example 204] | > 10000 nM | 1050 nM | 0.2 nM
25 | CCC(C)Cc1ccc(C(=O)C2CCN(c3ccc(S(=O)(=O)C4(C(=O)NO)CCN(CCOC)CC4)cc3)CC2)cc1 (stereo not drawn) [Example 205] | > 10000 nM | 412 nM | < 0.1 nM
26 | COc1ccc(C(=O)C2CCN(c3ccc(S(=O)(=O)C4(C(=O)NO)CCN(S(C)(=O)=O)CC4)cc3)CC2)cc1 [Example 206] | > 10000 nM | 199 nM | 1.8 nM
27 | Cc1ccc(C(=O)C2CCN(c3ccc(S(=O)(=O)C4(C(=O)NO)CCN(S(C)(=O)=O)CC4)cc3)CC2)cc1 [Example 207] | > 10000 nM | 4.4 nM | 1.1 nM
28 | CCN1CCC(C(=O)NO)(S(=O)(=O)c2ccc(N3CCC(C(=O)c4ccc(C)cc4)CC3)cc2)CC1 [Example 208] | > 10000 nM | 19.6 nM | 0.1 nM
29 | Cc1ccc(C(=O)C2CCN(c3ccc(S(=O)(=O)C4(C(=O)NO)CCN(CC5CC5)CC4)cc3)CC2)cc1 [Example 210] | > 10000 nM | 13.1 nM | 1.1 nM
30 | COCCN1CCC(C(=O)NO)(S(=O)(=O)c2ccc(N3CCC(C(=O)c4ccc(Cl)c(C)c4)CC3)cc2)CC1 [Example 211] | > 10000 nM | 122 nM | 1.2 nM
31 | CCc1ccc(C(=O)C2CCN(c3ccc(S(=O)(=O)C4(C(=O)NO)CCN(CCOC)CC4)cc3)CC2)cc1 [Example 212] | > 10000 nM | 110 nM | 0.2 nM
32 | O=C(c1ccc(Cl)cc1)C1CCN(c2ccc(S(=O)(=O)C3(C(=O)NO)CCN(C4CC4)CC3)cc2)CC1 [Example 213] | > 10000 nM | 25.8 nM | 0.5 nM
33 | Cc1cc(C(=O)C2CCN(c3ccc(S(=O)(=O)C4(C(=O)NO)CCN(C5CC5)CC4)cc3)CC2)ccc1Cl [Example 214] | > 10000 nM | 160 nM | 1.7 nM
34 | CC(C)Oc1ccc(C(=O)C2CCN(c3ccc(S(=O)(=O)C4(C(=O)NO)CCN(C5CC5)CC4)cc3)CC2)cc1 [Example 215] | > 10000 nM | 22.7 nM | 0.9 nM
35 | CC(C)COc1ccc(C(=O)C2CCN(c3ccc(S(=O)(=O)C4(C(=O)NO)CCN(C5CC5)CC4)cc3)CC2)cc1 [Example 216] | > 10000 nM | 46.4 nM | 1.5 nM
36 | CC(C)CCOc1ccc(C(=O)C2CCN(c3ccc(S(=O)(=O)C4(C(=O)NO)CCN(C5CC5)CC4)cc3)CC2)cc1 [Example 217] | > 10000 nM | 270 nM | 1.3 nM
